Source: patent publication US5750700A, “Certain 1-substituted aminomethyl imidazole and pyrrole derivatives: novel dopamine receptor subtype specific ligands” (Neurogen Corporation, priority 1995, dated 1998)
pIC50, pKi: −log10 of the molar value. Structures can show the parent of a compound that is named as a salt.

Key:
[1] = molecular target: D2 and D3 receptor (rat striatal homogenates); assay: D2 and D3 receptor binding activity: displacement of 3H-raclopride in rat striatal homogenates; design: species or system adult male Sprague Dawley rats; details: 0.5 nM 3H-raclopride, nonspecific binding 10^-4M dopamine
Procedure: Assay for D2 and D3 Receptor Binding Activity Striatial tissue is dissected from adult male Sprague Dawley rats or BHK 293 cells are harvested containing recombinantly produced D2 or D3 receptors. The sample is homogenized in 100 volumes (w/vol) of 0.05M Tris HCl buffer at 4° C. and pH 7.4. The sample is then centrifuged at 30,000×g and resuspended and rehomogenized. The sample is then centrifuged as described and the final tissue sample is frozen until use. The tissue is resuspended 1:20 (wt/vol) in 0.05M Tris HCl buffer containing 100 mM NaCl. […] The binding characteristics of examples of this patent are shown in Table 1 for Rat Striatal Homogenates.

[2] = molecular target: T1, human dopamine D4 receptor subtype (Homo sapiens, UniProt P21917); assay: D4 receptor binding activity: displacement of [3H] YM-09151-2; details: 0.1 nM [3H] YM-09151-2; 60 minutes at 25° C.; clonal cell lines expressing human D4
T1 construct: expressed in transfected cells
T1 sequence (P21917 1-419): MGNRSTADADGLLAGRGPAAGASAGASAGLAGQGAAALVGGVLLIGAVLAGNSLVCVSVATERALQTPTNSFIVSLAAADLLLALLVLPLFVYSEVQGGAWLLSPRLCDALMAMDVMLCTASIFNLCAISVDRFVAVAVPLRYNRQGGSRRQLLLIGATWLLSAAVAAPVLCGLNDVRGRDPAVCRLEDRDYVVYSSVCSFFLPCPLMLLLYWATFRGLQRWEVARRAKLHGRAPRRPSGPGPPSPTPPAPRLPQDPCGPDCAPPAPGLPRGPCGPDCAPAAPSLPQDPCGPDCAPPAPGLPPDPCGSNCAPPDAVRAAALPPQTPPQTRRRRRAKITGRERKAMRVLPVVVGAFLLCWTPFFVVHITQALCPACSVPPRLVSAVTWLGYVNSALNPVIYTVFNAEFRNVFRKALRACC
Procedure: Assay for D4 Receptor Binding Activity
Clonal cell lines expressing the human dopamine D4 receptor subtype were harvested in PBS and the cells centrifuged and the pellets stored at -80° C. until used in the binding assay. The pellets were resuspended and the cells lysed at 4° C. in 50 mM Tris pH 7.4 buffer containing 120 mM NaCl, 2 mM EDTA and 5 mM mMgCl2. The homogenate is centrifuged at 48000×g for 10 minutes at 4° C. The resulting pellet is resuspended in fresh buffer and centrifuged again. After resuspension of the pellet in fresh buffer at 100 ul aliquot removed for the protein determination. The remaining homogenate is centrifuged as above, the supernatant removed and the pellet stored at 4° C. until needed at which time it is resuspended to a final concentration of 625 ug/ml (250 ug per sample) with 50 mM Tris buffer (pH 7.4) and 120 mM NaCl just prior to use. Incubations were carried out for 60 minutes at 25° C. in the presence of 0.1 nM [^3 H] YM-09151-2. The incubation was terminated by rapid filtration through Whatman GF/C filters and rinsed with 2×4 ml washes of chilled 50 mM Tris (pH 7.4) and 120 mM NaCl. Nonspecific binding was determined with 1 uM spiperone and radioactivity determined by counting in an LKB beta counter. Binding parameters were determined by non-linear least squares regression analysis, from which the inhibition constant Ki could be calculated for each test compound. The binding characteristics of some examples of this patent are shown in Table 2 for the dopamine D4 binding assay. […] YM-09151-2 from the human dopamine D4 receptor subtype of below […].

| pIC50 [1] | pKi [2] | SMILES |
| --- | --- | --- |
| 6.85 | 8.52 | c1ccc(CC2CCN(Cc3cn(-c4ccccc4)cn3)CC2)cc1 [Compound 1, 1-phenyl-4[(4-benzyl-piperidin-1-yl)-methyl]imidazole] |
| 8.22 | 8.70 | c1ccc(N2CCN(Cc3cn(-c4ccccc4)cn3)CC2)cc1 [Compound 3, 1-Phenyl-4[(4-phenyl-piperazin-1-yl)methyl]imidazole dihydrochloride] |
| 6.71 | 8.52 | Fc1ccc(N2CCN(Cc3cn(-c4ccccc4)cn3)CC2)cc1 [Compound 6, 1-Phenyl-4[(4-(4-fluorophenyl)-piperazin-1-yl)methyl]imidazole dihydrochloride] |
| 8.52 | 8.00 | c1ccc(C2CCN(Cc3cn(-c4ccccc4)cn3)CC2)cc1 [Compound 2, 1-Phenyl-4[(4-phenyl-piperidin-1-yl)methyl]imidazole dihydrochloride] |
